{"source": "ChEMBL document CHEMBL5113368", "about": "“Meroterpenoids produced by fungi: Occurrence, structural diversity, biological activities, and their molecular targets” (Eur J Med Chem, 2021)", "key": {"SGC-7901": {"test_system": "SGC-7901", "test": "Cytotoxicity against human SGC-7901 cells assessed as cell growth inhibition measured after 48 hrs by MTT assay", "type": "functional, cell-based", "details": "SGC-7901, 48 h"}, "HeLa": {"test_system": "HeLa", "test": "Cytotoxicity against human HeLa cells assessed as cell growth inhibition measured after 48 hrs by MTT assay", "type": "functional, cell-based"}, "Phytophthora nicotianae [1]": {"test_system": "Phytophthora nicotianae", "test": "Antifungal activity Phytophthora parasitica assessed as inhibition of fungal growth by microbroth dilution method", "type": "functional"}, "Verticillium dahliae [2]": {"test_system": "Verticillium dahliae", "test": "Antifungal activity Verticillium dahliae assessed as inhibition of fungal growth by microbroth dilution method", "type": "functional"}, "Bacillus subtilis": {"test_system": "Bacillus subtilis", "test": "Antibacterial activity against Bacillus subtilis assessed as reduction in microbial growth by modified broth dilution test", "type": "functional"}, "RAW264.7": {"test_system": "RAW264.7", "test": "Antiinflammatory activity in mouse RAW264.7 cells assessed as decrease in LPS-induced IL-6 expression at 40 uM preincubated for 2 hrs followed by LPS-stimulation for 22 hrs by ELISA analysis relative to control", "type": "functional", "details": "time 24 hrs"}, "[3]": {"test": "Inhibition of rat intestinal alpha-glucosidase"}, "[4]": {"test": "Inhibition of rat intestinal maltase"}, "[5]": {"test": "Inhibition of rat intestinal sucrase"}, "KB": {"test_system": "KB", "test": "Cytotoxicity against human KB cells assessed as cell growth inhibition", "type": "functional, cell-based"}, "[6]": {"test_system": "Mycobacterium tuberculosis", "test": "Antimycobacterial activity against Mycobacterium tuberculosis H37Ra assessed as inhibition of bacterial growth by microplate alamar blue assay", "type": "functional"}, "NCI-H187": {"test_system": "NCI-H187", "test": "Cytotoxicity against human NCI-H187 cells assessed as cell growth inhibition", "type": "functional, cell-based"}, "MGC-803": {"test_system": "MGC-803", "test": "Cytotoxicity against human MGC-803 cells assessed as cell growth inhibition measured after 72 hrs by MTT assay", "type": "functional"}, "MCF7": {"test_system": "MCF7", "test": "Cytotoxicity against human MCF7 cells assessed as cell growth inhibition measured after 96 hrs by MTT assay", "type": "functional, cell-based", "details": "MCF7, 96 h"}, "Hepatitis C virus": {"test_system": "Hepatitis C virus", "test": "Antiviral activity against Hepatitis C virus infected in human Huh7.5 cells assessed as inhibition of viral replication", "type": "functional, organism-based, Hepacivirus hominis"}, "[7]": {"test": "Cytotoxicity against rat IEC-6 cells assessed as cell growth inhibition by WST-1 assay", "type": "toxicity, cell-based"}, "HL-60": {"test_system": "HL-60", "test": "Cytotoxicity against human HL-60 cells assessed as cell growth inhibition measured after 48 hrs by MTT assay", "type": "functional, cell-based", "details": "HL-60, 48 h"}, "[8]": {"test_system": "Human immunodeficiency virus 1", "test": "Antiviral activity against HIV1 VSV-G pseudotyped virus infected in human SUP-T1 cells infected using supernatant of virus-producing 293T cells incubated for 48 hrs by firefly luciferase assay", "type": "functional, organism-based", "details": "Human immunodeficiency virus 1, SUP-T1, 48 h"}, "Beta-secretase 1": {"target": "Beta-secretase 1 (Homo sapiens, UniProt P56817)", "sequence (P56817 whole entry)": "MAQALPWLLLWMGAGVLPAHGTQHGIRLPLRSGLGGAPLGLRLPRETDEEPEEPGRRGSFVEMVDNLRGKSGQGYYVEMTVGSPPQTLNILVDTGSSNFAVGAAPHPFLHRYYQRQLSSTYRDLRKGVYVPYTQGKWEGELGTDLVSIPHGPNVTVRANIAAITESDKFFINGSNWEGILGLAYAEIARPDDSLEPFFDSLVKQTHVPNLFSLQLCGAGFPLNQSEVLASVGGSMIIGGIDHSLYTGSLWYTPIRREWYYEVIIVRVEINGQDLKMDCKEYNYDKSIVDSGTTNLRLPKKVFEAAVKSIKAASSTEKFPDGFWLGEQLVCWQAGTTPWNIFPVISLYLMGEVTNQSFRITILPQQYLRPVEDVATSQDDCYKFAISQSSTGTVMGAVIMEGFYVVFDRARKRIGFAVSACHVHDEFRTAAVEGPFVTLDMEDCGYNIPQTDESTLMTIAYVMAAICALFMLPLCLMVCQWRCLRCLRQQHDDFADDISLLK", "test": "Inhibition of BACE1 (unknown origin) using […] incubated in dark for 1 hr by fluorescence based analysis"}, "Sclerotinia sclerotiorum": {"test_system": "Sclerotinia sclerotiorum", "test": "Antifungal activity against Sclerotinia sclerotiorum assessed as fungal growth inhibition by modified broth dilution", "type": "functional"}, "Botrytis cinerea": {"test_system": "Botrytis cinerea", "test": "Antifungal activity against Botrytis cinerea assessed as fungal growth inhibition by modified broth dilution", "type": "functional"}, "Fusarium graminearum": {"test_system": "Fusarium graminearum", "test": "Antifungal activity against Fusarium graminearum assessed as fungal growth inhibition by modified broth dilution", "type": "functional"}, "Verticillium dahliae [9]": {"test_system": "Verticillium dahliae", "test": "Antifungal activity against Verticillium dahliae assessed as fungal growth inhibition by modified broth dilution", "type": "functional"}, "Colletotrichum acutatum": {"test_system": "Colletotrichum acutatum", "test": "Antifungal activity against Colletotrichum acutatum assessed as fungal growth inhibition by modified broth dilution", "type": "functional"}, "Bipolaris maydis": {"test_system": "Bipolaris maydis", "test": "Antifungal activity against Bipolaris maydis assessed as fungal growth inhibition by modified broth dilution", "type": "functional"}, "Phytophthora nicotianae [10]": {"test_system": "Phytophthora nicotianae", "test": "Antifungal activity against Phytophthora parasitica assessed as fungal growth inhibition by modified broth dilution", "type": "functional"}, "Plasmodium falciparum": {"test_system": "Plasmodium falciparum", "test": "Antimalarial activity multidrug-resistant Plasmodium falciparum K1 assessed as inhibition of parasite growth by [3H]-hypoxanthine incorporation assay", "type": "functional, organism-based"}}}
{"smiles": "COc1ccc(O)c2c1[C@@H]1C=C(CC/C=C(/C)C2)C(=O)O1", "values": [{"measurement": "IC50", "setting": "SGC-7901", "result": 14.5, "unit": "µM"}, {"measurement": "IC50", "setting": "HeLa", "result": 23.5, "unit": "µM"}]}
{"smiles": "Cc1oc(=O)c2c(c1C)O[C@]1(C)[C@H](O)C(=O)[C@]3(O)C(C)(C)C(=O)C[C@@]3(O)[C@H](C)[C@H]1C2", "values": [{"measurement": "MIC", "setting": "Phytophthora nicotianae [1]", "result": 12.5, "unit": "mg/L"}, {"measurement": "MIC", "setting": "Verticillium dahliae [2]", "result": 12.5, "unit": "mg/L"}, {"measurement": "MIC", "setting": "Bacillus subtilis", "result": 12.5, "unit": "mg/L"}]}
{"smiles": "Cc1oc(=O)c2c(c1C)O[C@@]1(C)[C@@H]([C@@H](C)[C@]3(O)CC(=O)C(C)(C)C(=O)[C@@]3(O)[C@H]1O)[C@H]2O", "values": [{"measurement": "inhibition at 40 µM", "setting": "RAW264.7", "result": 69, "unit": "%"}]}
{"smiles": "C/C(=C\\CC/C(=C/Cc1cc(O)ccc1O)C(=O)O)CC[C@@H](O)C(C)(C)O", "values": [{"measurement": "IC50", "setting": "[3]", "result": 18.1, "unit": "µM"}, {"measurement": "IC50", "setting": "[4]", "result": 11.1, "unit": "µM"}, {"measurement": "IC50", "setting": "[5]", "result": 14.6, "unit": "µM"}]}
{"smiles": "CC(=O)O[C@H]1C[C@@H](O)[C@@]2(C)[C@@H](CC[C@]3(C)[C@@H]2CC[C@]2(C)Oc4oc(C)cc(=O)c4C[C@@H]32)C1(C)C", "values": [{"measurement": "IC50", "setting": "KB", "result": 32.7, "unit": "µM"}, {"measurement": "MIC", "setting": "[6]", "result": 26.4, "unit": "µM"}, {"measurement": "IC50", "setting": "NCI-H187", "result": 32.7, "unit": "µM"}]}
{"smiles": "CC(=O)OC[C@@]1(C)[C@@H]2C[C@H](OC(C)=O)[C@@]3(C)Oc4cc(-c5ccccc5)oc(=O)c4[C@H](O)[C@@H]3[C@@]2(C)C=C[C@@H]1O", "values": [{"measurement": "CC50", "setting": "MGC-803", "result": 19.1, "unit": "µM"}]}
{"smiles": "CC(C)=CC[C@H]1C(=O)C2=C(CO[C@@H]2CCO)[C@@H](O)[C@H]1O", "values": [{"measurement": "IC50", "setting": "MCF7", "result": 4.2, "unit": "µM"}]}
{"smiles": "CC1=C(O)C(=O)[C@@]23[C@H](C)CC[C@@H]2[C@H](C)CO[C@]32Oc3cc(O)cc(CO)c3C=C12", "values": [{"measurement": "IC50", "setting": "Hepatitis C virus", "result": 9.5, "unit": "µM"}]}
{"smiles": "C=C1[C@@]2(C)C[C@H]3C(=C)[C@]4(C=CC(=O)OC4(C)C)CC[C@]3(C)[C@@]13C(=O)O[C@@H](C)[C@@]3(O)C2=O", "values": [{"measurement": "IC50", "setting": "[7]", "result": 2.52, "unit": "mg/L"}]}
{"smiles": "CC1=C[C@H]2c3c(O)cc(C)c(C(=O)O)c3OC(C)(C)[C@H]2CC1", "note": "(relative stereo)", "values": [{"measurement": "IC50", "setting": "HL-60", "result": 24.1, "unit": "µM"}]}
{"smiles": "C/C=C/C=C/C1=C(CO)[C@@H](O)[C@@H](O)[C@@H](CC=C(C)C)C1=O", "values": [{"measurement": "IC50", "setting": "[8]", "result": 18, "unit": "µM"}]}
{"smiles": "C=C1[C@@]23C(=O)O[C@H](C)[C@@]2(O)C(=O)O[C@]1(C)[C@@H](O)C1=C2CO[C@H]4CC(=O)OC(C)(C)[C@@]24CC[C@@]13C", "values": [{"measurement": "IC50", "setting": "Beta-secretase 1", "result": 0.078, "unit": "µM"}]}
{"smiles": "CC(C)=CCc1ccc2c3c([nH]c2c1)[C@@]1(C)[C@@H](CC[C@@]2(O)[C@@]45O[C@@H]4[C@H](O)[C@@H](C(C)(C)O)O[C@H]5CC[C@@]21C)C3", "values": [{"measurement": "MIC", "setting": "Sclerotinia sclerotiorum", "result": 25, "unit": "mg/L"}, {"measurement": "MIC", "setting": "Botrytis cinerea", "result": 25, "unit": "mg/L"}, {"measurement": "MIC", "setting": "Fusarium graminearum", "result": 25, "unit": "mg/L"}, {"measurement": "MIC", "setting": "Verticillium dahliae [9]", "result": 25, "unit": "mg/L"}, {"measurement": "MIC", "setting": "Colletotrichum acutatum", "result": 25, "unit": "mg/L"}, {"measurement": "MIC", "setting": "Bipolaris maydis", "result": 25, "unit": "mg/L"}, {"measurement": "MIC", "setting": "Phytophthora nicotianae [10]", "result": 25, "unit": "mg/L"}]}
{"smiles": "CC(=O)O[C@H]1C[C@@H](OC(C)=O)[C@@]2(C)[C@@H](CC[C@]3(C)[C@@H]2CC[C@]2(C)Oc4oc(C)cc(=O)c4C[C@@H]32)C1(C)C", "values": [{"measurement": "IC50", "setting": "KB", "result": 32.7, "unit": "µM"}, {"measurement": "IC50", "setting": "NCI-H187", "result": 32.7, "unit": "µM"}, {"measurement": "IC50", "setting": "Plasmodium falciparum", "result": 6.67, "unit": "µM"}]}
